From PMC8581430, “Peptide ligands targeting FGF receptors promote recovery from dorsal root crush injury via AKT/mTOR signaling” (Theranostics, 2021) come the findings set out here.

One experiment relates to primary DRG neurons. Nature of the experiment: Axon growth of primary adult DRG neurons. The format is cell-based, Sprague-Dawley rat. As to conditions: CH02 20 μM + Torin1 1 μM, 48 h, n = 62. On the procedure: (§1) Figure 3 Effect of the CH02 peptide on axon growth and neuron survival. (A) Representative images of the CH02 peptide effect on axon growth in adult primary DRG neurons. DRG neurons were obtained from adult Sprague-Dawley rats. After 12-h of culture, neurons were stimulated with CH02 or bFGF for 48 h. Axonal outgrowth was assessed by immunocytochemistry using an antibody against β-tubulin, an axonal marker. Images were acquired from random neurons by fluorescence microscopy. Scale bars = 50 μm. (B) Quantification of the longest axon length of each neuron randomly selected in three independent experiments from (A), using Image-Pro Plus 6.0 software (n = 48 for each condition; *p < 0.05, ****p < 0.0001 by one-way ANOVA with Dunnett's test; ns, not significant; mean ± SD). (C) Representative images of the CH02 effect on axon growth in ex vivo cultured adult DRG explants. The axon is shown in fluorescence (β3-tubulin) images. Scale bars = 100 μm. (D) Quantification of axon growth of DRG explants from (C) using the Neurite-J software (n=4 for each condition; *control vs. CH02; #control vs. bFGF; *p < 0.05, **p < 0.01, ***p < 0.001, #p < 0.05, ##p < 0.01 by two-way ANOVA with Dunnett's test; ns, not significant; mean ± SEM). (E) Cell cytotoxicity assay of primary DRG neurons induced by H2O2. LDH released from damaged cell membranes was detected by an LDH assay kit. The results are expressed as the mean ± SEM (**p < 0.01 by one-way ANOVA with Dunnett's test; ns, not significant, compared with the control group). (F) Representative TUNEL staining of apoptotic neurons induced by H2O2 in the control, CH02, and FGF2 groups. Scale bars = 50 μm. Apoptotic neurons were detected by a TUNEL apoptosis assay kit. TUNEL (green); NeuN, neuronal marker (red); DAPI (blue). (G) Quantification of TUNEL-positive neurons from (F) (n = 3 for each condition; **p < 0.01 by one-way ANOVA with Dunnett's test; ns, not significant, compared with the control group). DRG neurons were obtained from adult Sprague-Dawley rats. […]

Another experiment deals with DRG explants. Nature of the experiment: Axon growth of ex vivo cultured adult DRG explants. The format is cell-based, Sprague-Dawley rat. The following applies: CH02 20 μM + Torin1 1 μM, 4 days, n = 4. Here is the method: as §1, with “(F) Representative TUNEL staining of apoptotic neurons induced by H2O2 in the control, CH02, and FGF2 groups. Scale bars = 50 μm.” left out, “TUNEL (green); NeuN, neuronal marker (red); DAPI (blue).” left out, “group).” for “group). DRG neurons were obtained from adult Sprague-Dawley rats.”
DRG explants were harvested from adult Sprague-Dawley rats (220-250 g) and placed in a 3.5 cm dish containing 2 mL of ice-cold neurobasal medium supplemented with 1 × B27, 4 mM Glutamax and 3× penicillin/streptomycin (Pen/Strep). […] After 7 days of culture, axon growth was measured. […]

Experiment [1] relates to dorsal root injury (DRI) model. Nature of the experiment: Von Frey test after dorsal root crush injury. The format is in vivo, Sprague-Dawley rat. As to conditions: rats after C5-T1 dorsal root crush, up to 8 weeks, n = 5. On the procedure:
(§2) Animals were anesthetized by intraperitoneal injection of pentobarbital sodium (40 mg/kg body weight) and local injection of 0.5% lidocaine. Under sterile conditions, a skin incision between the C4 and T2 spinous processes was made using a no. 10 scalpel blade. Subsequent surgeries were performed under a stereomicroscope. The muscles attached to the lamina were separated and removed using a surgical blade and microscissors to expose the lamina. A right hemilaminectomy on the C5-T1 vertebrae was performed using a fine rongeur to expose the right C5-T1 DRGs and associated dorsal roots. After dura mater opening, a concurrent C5 -T1 dorsal root crush injury was performed using no. 7 forceps. The tines of the forceps were inserted above and below the root, halfway between the dorsal root ganglia and DREZ. […]
Animals treated with CH02 or FGF2 (n = 5 animals per group) were assessed using the following behavioral tests: […]
After an acclimation period, the animal was stimulated using a Von Frey-type 0.5 mm filament, which was placed below the center of the plantar surface of the tested paw with increasing pressure. On every test day, each foot (left front and right front) was measured 5 times at 5-min intervals, and the number of paw withdrawals was recorded.

In experiment [2] the test system is dorsal root injury (DRI) model. Nature of the experiment: Plantar test after dorsal root crush injury. The following applies: rats after C5-T1 dorsal root crush, up to 8 weeks, n = 5. Type of experiment: in vivo, Sprague-Dawley rat. Here is the method:
as §2, with “DREZ. Each root was crushed three times, five times each, to ensure that the dorsal roots were crushed to sever all the axons within the root completely.” for “DREZ.”
Animals treated with CH02 or FGF2 (n = 5 animals per group) were assessed using the following behavioral tests:
Animals were acclimated to the testing room for at least 60 min before baseline testing, conducted before any surgical procedure. After dorsal root crush injuries, temperature sensation was measured twice a week for 8 weeks. […] Simultaneously, the paw withdrawal latency was recorded. […]

As for `CCC(=O)N1CCN(c2ccc(-n3c(=O)ccc4cnc5ccc(-c6cnc7ccccc7c6)cc5c43)cc2C(F)(F)F)CC1` [Torin1], in the experiment with primary DRG neurons, the “effect of mTOR inhibitor on CH02-promoted axon growth, primary neurons” value is listed as “greatly reduced the effect of the CH02 peptide in promoting axon growth”. Further, the “effect of mTOR inhibitor on CH02-promoted axon growth, DRG explants” value in the experiment with DRG explants is reported as “greatly reduced the effect of the CH02 peptide in promoting axon growth”.
With FGF2, the pressure sensation recovery result in experiment [1] was “significantly improved”. Besides, the thermal sensation recovery result in experiment [2] is reported as “significantly improved”.
